According to article PMC11283454 (Nature Communications, 2024):
Blank lines part the entries; values can stand above or below the molecule they belong to. Peptide text beside a SMILES is read from it. * marks the point of attachment. Cbz = O=C(OCc1ccccc1)*

Columns and labels:
hATE1 [1] = molecular target: T1, hATE1 (Homo sapiens, UniProt O95260); experiment: Differential scanning fluorimetry of hATE1 with or without ligands; conditions: DSF; for change of melting temperature of hATE1 in the presence of ligand: absence of tRNA, result in words
RGS4 [2] = experiment: Immunoblotting, proteasomal flux; conditions: MG132 10 μM, 6 h
hATE1 [3] = molecular target: T1, hATE1; experiment: MST direct binding assay, hATE1-peptide interaction; conditions: with vs without A + T arms
human ATE1 = experiment: Intact protein analysis of purified ATE1; conditions: purified recombinant ATE1, GST-tag removed, LC-MS
RGS4 [4] = experiment: Immunocytochemistry, RGS4 level in ATE1 deficient HeLa cells; conditions: ATE1-KO HeLa cells

T1 sequence (O95260 1-518 isoform O95260-2): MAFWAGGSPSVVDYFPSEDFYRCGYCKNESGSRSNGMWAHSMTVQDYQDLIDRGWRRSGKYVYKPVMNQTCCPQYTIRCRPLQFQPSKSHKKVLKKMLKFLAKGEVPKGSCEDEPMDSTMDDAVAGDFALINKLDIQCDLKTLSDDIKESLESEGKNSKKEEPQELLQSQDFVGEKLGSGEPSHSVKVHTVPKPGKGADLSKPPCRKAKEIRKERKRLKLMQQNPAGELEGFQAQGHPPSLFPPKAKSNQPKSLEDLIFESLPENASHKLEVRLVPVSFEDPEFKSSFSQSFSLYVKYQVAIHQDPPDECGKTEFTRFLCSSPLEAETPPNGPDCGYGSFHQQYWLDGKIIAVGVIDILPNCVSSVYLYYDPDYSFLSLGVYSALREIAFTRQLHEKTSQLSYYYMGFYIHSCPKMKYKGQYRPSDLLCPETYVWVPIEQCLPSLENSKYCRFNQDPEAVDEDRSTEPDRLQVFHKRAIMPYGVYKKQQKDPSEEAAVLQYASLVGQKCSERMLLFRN

change of melting temperature of hATE1 in the presence of ligand (hATE1 [1]): no change was observed
Molecule: N=C(N)NCCC[C@H](N)C(=O)O [free arginine, arginine]

change of melting temperature of hATE1 in the presence of ligand (hATE1 [1]): no change was observed
Molecule: NC(=O)CC[C@H](N)C(N)=O [glutamine amide]

Second part, the molecule before the results:

Molecule: O=C(O)CN(CCN(CC(=O)O)CC(=O)O)CC(=O)O [EDTA]
thermal stability decrease of ATE1 on EDTA treatment (hATE1 [1]; increasing amount of EDTA, duplicate measurements): ~ 7 °C

Molecule: CC(C)C[C@@H](C=O)NC(=O)[C@H](CC(C)C)NC(=O)[C@H](CC(C)C)NC(=O)OCc1ccccc1 [MG132] (Cbz-Leu-Leu-Leu-aldehyde)
RGS4 accumulation post-MG132 (RGS4 [2]; ATE1-KO HeLa cells): no RGS4 accumulation | normalized P.F. index (fold change), RGS4 accumulation (RGS4 [2]; WT ATE1 HeLa cells): ~ 29 fold change

Molecule: RDDIAA-FAM
fold enhancement of binding affinity by tRNA-mimetic (A + T arms) (hATE1 [3]): 15 -fold

Molecule: WT hATE1: human arginyl-tRNA-protein transferase 1 isoform 2, wild type, recombinant
small arginylated fraction of ATE1 (human ATE1): < 3 % of total | RGS4 level by immunostaining (RGS4 [4]): but not in those transfected with WT ATE1 | RGS4 proteasomal flux / RGS4 stabilization (RGS4 [2]; ATE1-KO HeLa cells expressing the ATE1 construct): restored the P.F. index
